Laboratory results from paper PMC7315563, “Bioactive fluorenes. Part III: 2,7-dichloro-9H-fluorene-based thiazolidinone and azetidinone analogues as anticancer and antimicrobial against multidrug resistant strains agents” (BMC Chemistry, 2020).
In brackets after ≈: the same amount, converted by molar mass.

Key:
WI-38 cells = test: FACS analysis, Annexin V and PI staining; type: cell-based, human; settings: 24 h, 5g 1000 µg/mL, 6c, 6d, 6k 500 µg/mL
Protocol: (§1) To uncover the mechanism of cell death for the compounds 5h, 6c, 6d and 6k on WI-38, A549, and MDA-MB-231 cells; Annexin v and propedium Iodide (PI) were used. In brief, WI-38, A549, MDA-MB-231 cells were cultured in 10 tissue culture dish with initial number 4 × 10^5 cell/Ml in RPMI growth media. In the following day, cells were treated with 6c, 6d and 6k as the following; (0.0, 500 μg/mL form each drug for WI-38 treatment, 0.0, 85, 117 and 200 μg/mL; respectively, for […] and 0.0, 250 from each for MDA-MB-231 cells treatment). After 24 h incubations, cells were washed and trypsinized and suspended in 50 μL 1X Annexin v binding buffer followed by adding 5 μL FITC Annexin V and incubated for 15 min at room temperature then 5 μL of PI were added to each tube. Finally, 400 μL of 1X Annexin v binding buffer were added to each tube and analyzed using Becton-Dickinson FACS Caliber.

A549 cells = test: FACS analysis, Annexin V and PI staining; type: cell-based, human; settings: 24 h, 5g 500, 6c 85, 6d 117, 6k 200 µg/mL
Protocol: as §1

MDA-MB-231 cells = test: FACS analysis, Annexin V and PI staining; type: cell-based, human; settings: 24 h, 5g 500, 6c 105, 6d 170, 6k 130 µg/mL
Protocol: To uncover the mechanism of cell death for the compounds 5h, 6c, 6d and 6k on WI-38, A549, and MDA-MB-231 cells; Annexin v and propedium Iodide (PI) were used. In brief, WI-38, A549, MDA-MB-231 cells were cultured in 10 tissue culture dish with initial number 4 × 10^5 cell/Ml in RPMI growth media. […] After 24 h incubations, cells were washed and trypsinized and suspended in 50 μL 1X Annexin v binding buffer followed by adding 5 μL FITC Annexin V and incubated for 15 min at room temperature then 5 μL of PI were added to each tube. Finally, 400 μL of 1X Annexin v binding buffer were added to each tube and analyzed using Becton-Dickinson FACS Caliber.

[1] = test system: Staphylococcus aureus (S. aureus), multidrug resistant clinical isolate; test: agar well diffusion assay; type: cell-based; settings: Staphylococcus aureus; S. aureus; 500 µg/mL of tested compound; 24 h
Excerpt: (§2) All microbial strains were kindly provided from the department of Medical Microbiology and Immunology faculty of Medicine Assiut University, these clinical isolates were obtained from clinical cases of infections admitted to Assiut University hospital as urinary tract infections, corneal ulcers, bacterial and fungal pneumonia, otomycosis, oral thrush and wound infections.
(§3) The clinical isolates used were multidrug resistant strains, they were resistant to β lactam (penicillin, amoxacillin, oxacillin), cephalosporins (cefazolin, cefaclor and cefepime) and macrolides (erythromycin and clarithromycin), they included Gram positive bacteria as Staphylococcus aureus (S. aureus), Methicillin-resistant Staphylococcus aureus (MRSA), Streptococcus pneumoniae (S. pneumoniae), and Gram negative bacteria as Escherichia coli (E. coli), Klebsiella pneumoniae (K. pneumoniae), Pseudomonas aeruginosa (P. aeruginosa), and Acinetobacter baumannii (A. baumannii). The fungal strains that were tested are Aspergillus flavus (A. flavus), A. niger (A. niger) and Candida albicans (C. albicans).
(§4) The antimicrobial activity of the fluorene derivatives was initially evaluated by agar well diffusion assay. Mueller–Hinton agar (CM0337) was poured into Petri dishes at 50–60 °C and left to solidify for 15 min. Subsequently, overnight microbial suspensions of tested strains was adjusted to turbidity of 0.5 McFarland Standard, which equals to 1–2 × 10^8 CFU/mL for bacteria and 1–5 × 10^6 for fungi. The microbial inoculums were then diluted in 1:100 ratio in case of bacteria and 1:10 ratio in case of fungi in order to get 1–5 × 10^5 CFU/mL. a sterile cotton swab was dipped into the adjusted microbial suspension and the Mueller–Hinton agar plates were inoculated by evenly streaking cotton swab over the agar medium. Then wells with a diameter of 0.5 cm were cut in the medium with a sterile cork borer. Stock solutions of the flourene derivatives were diluted in DMSO 1% to get 500 μg/mL concentrations. The tested flourene derivatives and controls (50 μL) were dispensed into the wells. The plates were incubated for 24 h at 37 °C for bacteria and C. albicans while at 25 °C for A. falvus and A. niger. The diameters of zones of inhibition (ZOI) around the wells were measured in mm. Following control agents were used: positive control agents—vancomycin (50 μg/mL) for Gram positive bacteria, gentamicin (10 μg/mL) (for Gram negative bacteria) and fluconazole 25 μg/mL for fungi and negative control agent is 1% DMSO.

[2] = test system: A549 human lung cancer cells; test: cell viability assay (MTT); type: cell-based; settings: 24 h; for viability at 1 µg/mL: read-out: Validity (%) for sample concentrations (µg/mL) 1; for viability at 10 µg/mL: read-out: Validity (%) for sample concentrations (µg/mL) 10; for viability at 31.25 µg/mL: read-out: Validity (%) for sample concentrations (µg/mL) 31.25; for viability at 62.5 µg/mL: 62.50 µg/mL, read-out: Validity (%) for sample concentrations (µg/mL) 62.50; for viability at 125 µg/mL: read-out: Validity (%) for sample concentrations (µg/mL) 125; for viability at 250 µg/mL: read-out: Validity (%) for sample concentrations (µg/mL) 250; for viability at 500 µg/mL: read-out: Validity (%) for sample concentrations (µg/mL) 500; for viability at 1000 µg/mL: read-out: Validity (%) for sample concentrations (µg/mL) 1000
Protocol: WI-38 normal lung fibroblast cells, A549 lung cancer cells, and MDA-MB-231 breast cancer cells were obtained from VACSERA—Cell Culture Unit, Cairo, Egypt. The cell lines were originally obtained from the American Tissue Culture Collection (ATCC). WI-38, A549, and MDA-MB-231 cell lines were cultured in RPMI-1640 medium supplemented with 10% inactivate fetal bovine serum (FBS) and 1% penicillin/streptomycin were bought (Gibco, Invitrogen, CA). WI-38, A549, and MDA-MB-231 cells were seeded into 96-well plates (at a density of 5000 cells/well). […] Cell viability was then assessed using the MTT assay (Sigma Aldrich, St. Louis, MO, USA), and the absorbance was read at 570 nm using an ELISA microplate reader (Molecular Devices, Downingtown, PA, USA).

[3] = test system: MDA-MB-231 human breast cancer cells; test: cell viability assay (MTT); type: cell-based; settings: 24 h; for viability at 1 µg/mL: read-out: Validity (%) for sample concentrations (µg/mL) 1; for viability at 10 µg/mL: read-out: Validity (%) for sample concentrations (µg/mL) 10; for viability at 31.25 µg/mL: read-out: Validity (%) for sample concentrations (µg/mL) 31.25; for viability at 62.5 µg/mL: read-out: Validity (%) for sample concentrations (µg/mL) 62.5; for viability at 125 µg/mL: read-out: Validity (%) for sample concentrations (µg/mL) 125; for viability at 250 µg/mL: read-out: Validity (%) for sample concentrations (µg/mL) 250; for viability at 500 µg/mL: read-out: Validity (%) for sample concentrations (µg/mL) 500
Protocol: (§5) WI-38 normal lung fibroblast cells, A549 lung cancer cells, and MDA-MB-231 breast cancer cells were obtained from VACSERA—Cell Culture Unit, Cairo, Egypt. The cell lines were originally obtained from the American Tissue Culture Collection (ATCC). WI-38, A549, and MDA-MB-231 cell lines were cultured in RPMI-1640 medium supplemented with 10% inactivate fetal bovine serum (FBS) and 1% penicillin/streptomycin were bought (Gibco, Invitrogen, CA). WI-38, A549, and MDA-MB-231 cells were seeded into 96-well plates (at a density of 5000 cells/well). On the following day, cells were treated with different concentrations (0, 1, 10, 31.25, 62.5, 125, 250, 500 µg/mL) of 16 fluorene derivatives in fresh medium and incubated for another 24 h. Cell viability was then assessed using the MTT assay (Sigma Aldrich, St. Louis, MO, USA), and the absorbance was read at 570 nm using an ELISA microplate reader (Molecular Devices, Downingtown, PA, USA).

[4] = test system: WI-38 human normal fibroblast cells; test: cell viability assay (MTT); type: cell-based; settings: 24 h; for viability at 31.25 µg/mL: read-out: Validity (%) for sample concentrations (µg/mL) 31.25; for viability at 62.5 µg/mL: 62.50 µg/mL, read-out: Validity (%) for sample concentrations (µg/mL) 62.50; for viability at 125 µg/mL: read-out: Validity (%) for sample concentrations (µg/mL) 125; for viability at 250 µg/mL: read-out: Validity (%) for sample concentrations (µg/mL) 250; for viability at 500 µg/mL: read-out: Validity (%) for sample concentrations (µg/mL) 500
Protocol: as §5

[5] = test system: Klebsiella pneumoniae (K. pneumoniae), multidrug resistant clinical isolate; test: agar well diffusion assay; type: cell-based; settings: 24 h, 500 µg/mL of tested compound
Excerpt: as §2, §3, §4

[6] = test system: Escherichia coli (E. coli), multidrug resistant clinical isolate; test: agar well diffusion assay; type: cell-based; settings: 24 h, 500 µg/mL of tested compound
Excerpt: as §2, §3, §4

| IC50 [2] [µg/mL] | IC50 [3] [µg/mL] | SMILES | viability at 1 µg/mL [2] [%] | viability at 10 µg/mL [2] [%] | viability at 31.25 µg/mL [2] [%] | viability at 62.5 µg/mL [2] [%] | viability at 125 µg/mL [2] [%] | viability at 250 µg/mL [2] [%] | viability at 500 µg/mL [2] [%] | viability at 1000 µg/mL [2] [%] | viability at 1 µg/mL [3] [%] | viability at 10 µg/mL [3] [%] | viability at 31.25 µg/mL [3] [%] | viability at 62.5 µg/mL [3] [%] | viability at 125 µg/mL [3] [%] | viability at 250 µg/mL [3] [%] | viability at 500 µg/mL [3] [%] | viability at 31.25 µg/mL [4] [%] | viability at 62.5 µg/mL [4] [%] | viability at 125 µg/mL [4] [%] | further results |
| --- | --- | --- | --- | --- | --- | --- | --- | --- | --- | --- | --- | --- | --- | --- | --- | --- | --- | --- | --- | --- | --- |
| 572 (≈ 1060 µM) | > 500 | O=C(O)c1ccc(C2SCC(=O)N2c2nc(-c3cc(Cl)cc4c3-c3ccc(Cl)cc3C4)cs2)cc1 (stereo not drawn) [5g, 4-(3-(4-(2,7-Dichloro-9H-fluoren-4-yl)thiazol-2-yl)-4-oxothiazolidin-2-yl)benzoic acid] | 93.7 | 90.3 | 88.7 | 78.6 | 84.1 | 75.7 | 56.3 | 16.8 | 92.6 | 87.3 | 80.9 | 72.2 | 67.7 | 63.2 | 58.5 | 96.7 | 95.1 | 90.2 | apoptotic cell death (of total cell number) (WI-38 cells): 1.5%; necrotic cell death (of total cell number) (WI-38 cells): 15.8%; apoptotic cell death (of total cell number) (A549 cells): 1.25%; necrotic cell death (of total cell number) (A549 cells): 16.7%; apoptotic cell death (of total cell number) (MDA-MB-231 cells): 1.34%; necrotic cell death (of total cell number) (MDA-MB-231 cells): 14.1%; zone of inhibition at 500 µg/mL [1]: 10 mm; viability at 250 µg/mL [4]: 85.8%; viability at 500 µg/mL [4]: 79.2%; IC50 [4]: > 500 µg/mL |
| 380 (≈ 695 µM) | 315 (≈ 576 µM) | O=C1CSC(c2ccnc3ccccc23)N1c1nc(-c2cc(Cl)cc3c2-c2ccc(Cl)cc2C3)cs1 (stereo not drawn) [5n, 3-(4-(2,7-Dichloro-9H-fluoren-4-yl)thiazol-2-yl)-2-(quinolin-4-yl)thiazolidin-4-one] | 94.2 | 91.2 | 83.1 | 78.6 | 70.7 | 58.9 | 27.3 | 8.02 | 98.7 | 91 | 92.8 | 90.6 | 76.8 | 58.7 | 27.2 | 54.3 | 51.5 | 50.8 | zone of inhibition at 500 µg/mL [1]: 7 mm; zone of inhibition at 500 µg/mL [5]: 5 mm; melting point: 204 to 206 °C; viability at 250 µg/mL [4]: 46.4%; viability at 500 µg/mL [4]: 40.5%; IC50 [4]: 130 µg/mL (≈ 238 µM) |
| 185 (≈ 372 µM) | > 500 | O=C1C(Cl)C(c2ccccc2)N1c1nc(-c2cc(Cl)cc3c2-c2ccc(Cl)cc2C3)cs1 (stereo not drawn) [6a, 3-Chloro-1-(4-(2,7-dichloro-9H-fluoren-4-yl)thiazol-2-yl)-4-phenylazetidin-2-one] | 98.6 | 89.1 | 79.2 | 75.9 | 70.3 | 30.7 | 20.8 | 14.4 | 99.4 | 92.4 | 90.7 | 83.1 | 78.3 | 69.6 | 63.2 | 71.1 | 66.1 | 59.1 | zone of inhibition at 500 µg/mL [6]: 13 mm; zone of inhibition at 500 µg/mL [1]: 5 mm; melting point: 118 to 120 °C; viability at 250 µg/mL [4]: 49.1%; viability at 500 µg/mL [4]: 47.1%; IC50 [4]: 241 µg/mL (≈ 484 µM) |
| 801 (≈ 1530 µM) | 120 (≈ 229 µM) | O=C1C(Cl)C(C=Cc2ccccc2)N1c1nc(-c2cc(Cl)cc3c2-c2ccc(Cl)cc2C3)cs1 (stereo not drawn) [6i, 3-Chloro-1-(4-(2,7-dichloro-9H-fluoren-4-yl)thiazol-2-yl)-4-styrylazetidin-2-one] | 96.6 | 91.9 | 89.4 | 78.1 | 76.3 | 67.9 | 53.3 | 49.4 | 94.2 | 89.1 | 66.8 | 55.9 | 49.2 | 24.3 | 18.2 | 83.1 | 76.5 | 56.5 | zone of inhibition at 500 µg/mL [6]: 12 mm; zone of inhibition at 500 µg/mL [5]: 3 mm; melting point: 110 to 112 °C; viability at 250 µg/mL [4]: 49.2%; viability at 500 µg/mL [4]: 39.2%; IC50 [4]: 240 µg/mL (≈ 458 µM) |
